Results published in PubChem BioAssay (NCI).
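Cells were grown in 96-well plates and exposed to each compound for 48 hours at five concentrations; endpoints were interpolated linearly between bracketing concentrations, or set to the highest concentration if not reached. The concentration for 50% growth inhibition is given as GI50. TGI: concentration producing complete growth inhibition.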

Assays:
Assay in all cases: NCI tumour cell line growth inhibition, 48 h
OVCAR-4 ovarian = system: OVCAR-4 ovarian
MDA-MB-231 breast = system: MDA-MB-231 breast
NCI-H226 lung = system: NCI-H226 lung
KM12 colon = system: KM12 colon
UACC-62 melanoma = system: UACC-62 melanoma
SNB-19 CNS = system: SNB-19 CNS
NCI-H522 lung = system: NCI-H522 lung
CCRF-CEM leukemia = system: CCRF-CEM leukemia
SR leukemia = system: SR leukemia
SK-OV-3 ovarian = system: SK-OV-3 ovarian

COc1ccc2c3c(Nc4cccc(/C(C)=N\O)c4)[nH]c4ccccc4c-3c(N=O)c2c1
GI50 (OVCAR-4 ovarian): 29 µM | TGI (OVCAR-4 ovarian): > 100 µM | GI50 (MDA-MB-231 breast): 18.9 µM | TGI (MDA-MB-231 breast): 44.5 µM | GI50 (NCI-H226 lung): 54 µM | TGI (NCI-H226 lung): > 100 µM | GI50 (KM12 colon): 28.1 µM | TGI (KM12 colon): > 100 µM | GI50 (UACC-62 melanoma): 43.9 µM | TGI (UACC-62 melanoma): > 100 µM | GI50 (SNB-19 CNS): 43.7 µM | TGI (SNB-19 CNS): > 100 µM | GI50 (NCI-H522 lung): 46.2 µM | TGI (NCI-H522 lung): > 100 µM | GI50 (CCRF-CEM leukemia): 13.6 µM | TGI (CCRF-CEM leukemia): > 100 µM | GI50 (SR leukemia): 20.4 µM | TGI (SR leukemia): > 100 µM

O=C1C=CC2OC(c3ccccc3)C(O)C2O1 (centres undefined)
TGI (OVCAR-4 ovarian): 17.9 µM | TGI (NCI-H226 lung): 5.2 µM | TGI (KM12 colon): 17.3 µM | TGI (UACC-62 melanoma): 20.9 µM | TGI (SNB-19 CNS): 30.2 µM | TGI (NCI-H522 lung): 4 µM | TGI (CCRF-CEM leukemia): 11.6 µM | TGI (SK-OV-3 ovarian): 39.5 µM

O=C(Nc1ccc(Cl)cc1C(F)(F)F)C(=O)C1CCCS1(=O)=O (centres undefined)
TGI (OVCAR-4 ovarian): > 100 µM | TGI (NCI-H226 lung): > 100 µM | TGI (KM12 colon): > 100 µM | TGI (UACC-62 melanoma): > 100 µM | TGI (SNB-19 CNS): > 100 µM | TGI (CCRF-CEM leukemia): > 100 µM | TGI (SR leukemia): > 100 µM

CCOC(=O)CC1COc2ccc3c(c21)OCO3 (centres undefined)
TGI (OVCAR-4 ovarian): > 100 µM | TGI (NCI-H226 lung): > 100 µM | TGI (KM12 colon): > 100 µM | TGI (UACC-62 melanoma): > 100 µM | TGI (SNB-19 CNS): > 100 µM | TGI (CCRF-CEM leukemia): > 100 µM | TGI (SK-OV-3 ovarian): > 100 µM | TGI (SR leukemia): > 100 µM

COc1cc(OC)cc(-c2ccc(-c3ccc(C(=N)N)cn3)o2)c1
GI50 (OVCAR-4 ovarian): 1.74 µM | TGI (OVCAR-4 ovarian): 3.46 µM | GI50 (KM12 colon): 1.78 µM | TGI (KM12 colon): 3.34 µM | GI50 (UACC-62 melanoma): 1.77 µM | TGI (UACC-62 melanoma): 3.29 µM | GI50 (CCRF-CEM leukemia): 2.06 µM | TGI (CCRF-CEM leukemia): 4.6 µM | GI50 (SK-OV-3 ovarian): 1.91 µM | TGI (SK-OV-3 ovarian): 3.34 µM | GI50 (SR leukemia): 1.73 µM | TGI (SR leukemia): 3.96 µM

Oc1ccc([C@H]2c3c(O)cc(O)cc3C3c4c(cc(O)cc4[C@@H]2[C@H]2c4cc(O)cc5c4C(c4cc(O)cc(O)c4[C@@H]2c2ccc(O)cc2)[C@@H](c2ccc(O)cc2)O5)O[C@@H]3c2ccc(O)cc2)cc1 (some centres undefined)
TGI (OVCAR-4 ovarian): 8.53 µM | TGI (MDA-MB-231 breast): > 100 µM | TGI (NCI-H226 lung): > 100 µM | TGI (KM12 colon): > 100 µM | TGI (UACC-62 melanoma): > 100 µM | TGI (SNB-19 CNS): > 100 µM | TGI (NCI-H522 lung): > 100 µM | TGI (CCRF-CEM leukemia): > 100 µM | TGI (SR leukemia): 50 µM

CC(CCC[C@H](C)CO)[C@H]1[C@@H](O)C(O)C2[C@@H]3C[C@@H](O)C4(O)C[C@@H](O)CC[C@]4(C)C3CC[C@@]21C (some centres undefined)
TGI (OVCAR-4 ovarian): > 100 µM | TGI (NCI-H226 lung): > 100 µM | TGI (KM12 colon): > 100 µM | TGI (UACC-62 melanoma): > 100 µM | TGI (SNB-19 CNS): > 100 µM | TGI (NCI-H522 lung): > 100 µM | TGI (CCRF-CEM leukemia): > 100 µM | TGI (SK-OV-3 ovarian): > 100 µM | TGI (SR leukemia): > 100 µM

CC(=O)OC(CC1(C)C(C)CCC23COC(=O)C2=CCCC31)c1ccoc1 (centres undefined)
TGI (OVCAR-4 ovarian): > 100 µM | TGI (NCI-H226 lung): 44.1 µM | TGI (KM12 colon): 67.4 µM | TGI (UACC-62 melanoma): 59.9 µM | TGI (SNB-19 CNS): 82.9 µM | TGI (NCI-H522 lung): 35.6 µM | TGI (CCRF-CEM leukemia): 80.3 µM | TGI (SK-OV-3 ovarian): > 100 µM

CCOC(=O)NN(C(=O)OCC)C(C(=O)C1=CCCCC1)N(NC(=O)OCC)C(=O)OCC
TGI (OVCAR-4 ovarian): > 100 µM | TGI (MDA-MB-231 breast): > 100 µM | TGI (NCI-H226 lung): > 100 µM | TGI (KM12 colon): > 100 µM | TGI (SNB-19 CNS): > 100 µM | TGI (NCI-H522 lung): > 100 µM | TGI (SK-OV-3 ovarian): > 100 µM | TGI (SR leukemia): > 100 µM

CCOC(=O)Cn1c2ccccc2c(=O)c2cc(C)c(C)c(C#N)c21
TGI (NCI-H226 lung): > 100 µM | TGI (UACC-62 melanoma): > 100 µM | TGI (SNB-19 CNS): > 100 µM | TGI (CCRF-CEM leukemia): > 100 µM | TGI (SK-OV-3 ovarian): > 100 µM | TGI (SR leukemia): > 100 µM

CCOC(=O)/C=C(\C(=O)OCC)n1ccc(=O)n(Cc2cnnn2CCCCOC(C)=O)c1=O
TGI (OVCAR-4 ovarian): 30.2 µM | TGI (MDA-MB-231 breast): 38.1 µM | TGI (NCI-H226 lung): 39.4 µM | TGI (KM12 colon): 30.5 µM | TGI (UACC-62 melanoma): 23.4 µM | TGI (NCI-H522 lung): 3.05 µM | TGI (SK-OV-3 ovarian): > 75.7 µM | GI50 (SR leukemia): 1.68 µM | TGI (SR leukemia): 5.49 µM

CC(=O)Nc1ccc2nc(-c3ccccn3)c(-c3ccccn3)nc2c1
TGI (OVCAR-4 ovarian): > 100 µM | TGI (MDA-MB-231 breast): > 100 µM | TGI (NCI-H226 lung): > 100 µM | TGI (KM12 colon): > 100 µM | TGI (UACC-62 melanoma): > 100 µM | TGI (SNB-19 CNS): > 100 µM | TGI (NCI-H522 lung): > 100 µM | TGI (CCRF-CEM leukemia): > 100 µM | TGI (SR leukemia): > 100 µM

O=C1CSC(c2c[nH]c3ccccc23)N1c1ccc(Cl)cc1 (centres undefined)
TGI (OVCAR-4 ovarian): > 100 µM | TGI (MDA-MB-231 breast): > 100 µM | TGI (NCI-H226 lung): > 100 µM | TGI (KM12 colon): > 100 µM | TGI (UACC-62 melanoma): > 100 µM | TGI (SNB-19 CNS): > 100 µM | TGI (SK-OV-3 ovarian): > 100 µM

S=C(NCCc1ccccn1)N/N=C/c1ccccn1
TGI (OVCAR-4 ovarian): > 74.7 µM | TGI (NCI-H226 lung): 0.986 µM | TGI (KM12 colon): > 100 µM | TGI (UACC-62 melanoma): 4.59 µM | TGI (SNB-19 CNS): > 100 µM | TGI (NCI-H522 lung): 1.57 µM | TGI (CCRF-CEM leukemia): < 0.01 µM | TGI (SK-OV-3 ovarian): > 100 µM | TGI (SR leukemia): < 0.0182 µM

NC(N)=NS(=O)(=O)c1ccc(N/N=C2/CCOC2=O)cc1
TGI (OVCAR-4 ovarian): > 100 µM | TGI (MDA-MB-231 breast): > 100 µM | TGI (NCI-H226 lung): > 100 µM | TGI (KM12 colon): > 100 µM | TGI (UACC-62 melanoma): > 100 µM | TGI (SNB-19 CNS): > 100 µM | TGI (CCRF-CEM leukemia): > 100 µM | TGI (SK-OV-3 ovarian): > 100 µM | TGI (SR leukemia): > 100 µM

O=P1(c2ccccc2)c2ccccc2-c2ccccc21
TGI (MDA-MB-231 breast): > 100 µM | TGI (NCI-H226 lung): > 100 µM | TGI (KM12 colon): > 100 µM | TGI (UACC-62 melanoma): > 100 µM | TGI (SNB-19 CNS): > 100 µM | TGI (NCI-H522 lung): > 100 µM | TGI (CCRF-CEM leukemia): > 100 µM | TGI (SK-OV-3 ovarian): > 100 µM

COc1cc(CSc2ccc(O)cc2)cc(OC)c1OC
TGI (MDA-MB-231 breast): > 100 µM | TGI (NCI-H226 lung): > 100 µM | TGI (KM12 colon): > 100 µM | TGI (UACC-62 melanoma): > 100 µM | TGI (SNB-19 CNS): > 100 µM | TGI (NCI-H522 lung): > 100 µM | TGI (SK-OV-3 ovarian): > 100 µM | TGI (SR leukemia): > 100 µM

COc1cc(C)c(/C=C2/N=C(c3ccccc3)OC2=O)c([N+](=O)[O-])c1OC
TGI (OVCAR-4 ovarian): > 100 µM | TGI (MDA-MB-231 breast): > 100 µM | TGI (NCI-H226 lung): > 100 µM | TGI (KM12 colon): > 100 µM | TGI (UACC-62 melanoma): > 100 µM | TGI (SNB-19 CNS): > 100 µM | TGI (NCI-H522 lung): > 100 µM | TGI (CCRF-CEM leukemia): > 100 µM | TGI (SK-OV-3 ovarian): > 100 µM

C=CCNC(=S)N1CC(C)C(=O)Nc2cc(Cl)ccc21 (centres undefined)
TGI (OVCAR-4 ovarian): > 100 µM | TGI (NCI-H226 lung): > 100 µM | TGI (KM12 colon): > 100 µM | TGI (UACC-62 melanoma): > 100 µM | TGI (SNB-19 CNS): > 100 µM | TGI (NCI-H522 lung): > 100 µM | TGI (SK-OV-3 ovarian): > 100 µM | TGI (SR leukemia): > 100 µM

COc1cc2c3cc1Oc1c(O)c(OC)cc4c1C(Cc1ccc(O)c(c1)Oc1ccc(cc1)CC3N(C)CC2)N(C)CC4 (centres undefined)
TGI (OVCAR-4 ovarian): 28.2 µM | TGI (NCI-H226 lung): 38.3 µM | TGI (KM12 colon): 23.6 µM | TGI (UACC-62 melanoma): 42.9 µM | TGI (SNB-19 CNS): 68 µM | TGI (NCI-H522 lung): 29.7 µM | TGI (CCRF-CEM leukemia): 36.7 µM | TGI (SK-OV-3 ovarian): 40.1 µM

COc1cc(C2C3=C(COC3=O)Oc3cc4c(cc32)OCO4)ccc1O (centres undefined)
TGI (OVCAR-4 ovarian): > 75.3 µM | TGI (NCI-H226 lung): > 100 µM | TGI (KM12 colon): > 100 µM | TGI (UACC-62 melanoma): > 100 µM | TGI (SNB-19 CNS): > 100 µM | TGI (NCI-H522 lung): 1.31 µM | TGI (CCRF-CEM leukemia): > 100 µM | TGI (SK-OV-3 ovarian): 0.932 µM

NS(=O)(=O)c1nnc(NC(=O)C23CC4CC(CC(C4)C2)C3)s1
TGI (OVCAR-4 ovarian): 3.74 µM | TGI (MDA-MB-231 breast): > 100 µM | TGI (NCI-H226 lung): > 100 µM | TGI (KM12 colon): > 100 µM | TGI (UACC-62 melanoma): > 100 µM | TGI (SNB-19 CNS): > 100 µM | TGI (NCI-H522 lung): > 100 µM | TGI (SK-OV-3 ovarian): > 100 µM | TGI (SR leukemia): > 100 µM
